# Reference: patent US20210358575A1, “A METHOD FOR DETERMINING THE EFFICACY OF TREATMENT WITH A COMBINATION OF DRUGS IN A SUBJECT DIAGNOSED WITH A DISEASE AND A METHOD FOR CLASSIFYING THE UTILITY OF DRUG COMBINATIONS IN TREATMENT OF SAID SUBJECT” (priority 2018, published 2021)
# How the values were obtained:
# [1] = test system: bone marrow samples of multiple myeloma (MM) patients; test: Ex vivo test of single drugs, EC50 compared with population distribution, multiple myeloma samples; format: cell-based, human
# Procedure: (§1) Bone marrow samples were obtained from three adult patients diagnosed with MM (VIVIA-PMMM010431, VIVIA-PMMM060111 and VIVIA-PMMM130061) and three adult patients diagnosed with ALL (VIVIA-PMALL07002, VIVIA-PMALL04001 and VIVIA-PMALL09001). Following the same experimental design as described for examples 1 and 3, said bone marrow samples were incubated for 48 h in well plates containing the single drugs shown in FIGS. 21 to 26. After the measurement of pathological populations by flow cytometry, pharmacological response parameters were estimated using population pharmacodynamic models. The most representative parameter of drug potency, the EC50, was used for a comparative analysis of the results provided by said bone marrow samples with respect to the statistical distribution of the same parameter observed in a population of samples and stored in the database. Such populations varied in size depending on the drug, being always over one hundred individuals in the case of MM and between 15 and 21 individuals in the case of ALL.
# [2] = test system: bone marrow samples of acute lymphoid leukemia (ALL) patients; test: Ex vivo test of single drugs, EC50 compared with population distribution, acute lymphoid leukemia samples; format: cell-based, human
# Procedure: as §1
# [3] = test system: first-line AML patients treated with CYT+IDA; test: Validation of PM Test score vs clinical response in 112 first-line AML samples; format: in vivo, human; settings: 112 AML patients treated with CYT+IDA
# Excerpt: The Precision Medicine (PM) Test as described ranks treatments by a score that estimates the activity of each treatment across a population of patient samples. Higher score represents more ex vivo sensitivity to treatment, while lower score represents less ex vivo sensitivity to treatment, i.e. more ex vivo resistance. A particular format of the results of the PM Test is shown in FIG. 19, panels A and B, wherein the ranking of treatments by activity score from 100%=best to 0%=worst is shown (score may be represented graphically using a colour/tone gradient or categorisation). The following 3 categories are identified:
# To validate the predictive power of these PM Test score results, the set of 123 samples treated homogeneously with CYT+IDA that were used in the correlation study of Example 1 were employed. Only 112 samples were used for validation. To evaluate the predictive power of the PM Test score, in the format shown in FIG. 19, panel A referring to a sensitive patient we can only use patients predicted to be sensitive or resistant. Treatments having intermediate scores are not considered sufficiently strong to predict any response. In the case of intermediate scores, other factors such as pharmacokinetics may be more important than the score. On the other hand, extreme scores are more likely to prevail over other factors such as pharmacokinetics.
# The set of data of 112 patients treated with CYT+IDA represents a 1st line treatment of AML with a 72% response rate. This means that 72% of these 112 patients achieved Complete Remission (CR) clinically. The majority of patients were sensitive, with fewer resistant patients. Thus, the statistics are improved by calculating the % of cases in which the PM Test score predicted patients to be sensitive to the ex vivo treatment. This means selecting only the treatments to which the patient is expected to be very sensitive, with scores between 80-100%. The % of accurate prediction of sensitive (responsive) patients is referred as the Negative Predicted Value (NPV).
# Samples whose score are between this variable threshold and 100% are analysed and predicted as sensitive because they have the top score. The results are shown for the monotherapies CYT and IDA, and for the combination treatment. Focus was placed on the combination treatment CYT+IDA that was administered to patients. Columns 8 to 10 of Table 4 show the results for the combined treatment CYT+IDA for different thresholds. The lowest threshold 55%, which means between 55 and 100%, identifies 93 out of the 112 samples, that would be predicted as sensitive. […] Thus, the prediction accuracy or NPV is 77/93=82.8%. As the threshold is increased (descending the 1st column of Table 4), the range of scores included is narrowed because the maximum is always 100%. Consequently, as the threshold is increased, the total number of samples included diminishes, reaching 0 samples at 100% (100-100%) and 18 samples at 95%. The decrease can be observed in the number of either sensitive or resistant samples (descending columns 8 and 9 of Table 4). […] Thus, the higher the score, the better the prediction (moreover, the intermediate sensitivity values provide less accurate prediction than the extreme values).
# [4] = test system: live pathological cells (LPC) in bone marrow samples of AML patients; test: PharmaFlow PM test: ex vivo drug sensitivity of whole bone marrow samples, population pharmacodynamic models; format: cell-based, human; settings: typical population value
# Procedure: Ex vivo drug sensitivity analysis was made using the PharmaFlow platform (previously termed ExviTech®) maintaining the bone marrow (BM) microenvironment. A minimum BM sample volume between one and two mL was collected by aspiration at AML diagnosis, before starting induction chemotherapy, and was processed by an automated method 24 hours after extraction. Samples were incubated with CYT, IDA and/or CYT+IDA for 48 hours. A more detailed description of the procedure has been published elsewhere (Bennett, et al 2014).
# Evaluation of drug response was done by counting the number of live pathological cells (LPC) remaining after incubation at increasing drug concentrations (Upton and Mould 2014). Dying cells (apoptosis) were excluded using Annexin V-FITC. Pharmacological responses were analyzed using PD population-based models (Upton and Mould 2014) which essentially perform the fitting of the dependent variable (natural log of LPC) in a non-linear mixed-effects model to derive typical population values (fixed effects) and the magnitude of inter-patient and residual variability (random effects).
# Model development was performed with the first-order conditional estimation method using interaction option with the software NONMEM (v7.2) (Beal, et al 1989-2001), according to the following equation: […]
# Where LPC0 (LCTi0) parameter refers to the number of LPC (LCTi) after incubation in the absence of drug, Emax represents the maximum fractional decrease in LPC that the drug can elicit, EC50, is the drug concentration exerting half of Emax, and γ is the parameter governing the steepness of the LPC vs drug concentration (C) curve. For interaction analysis a Surface Interaction model (Greco, et al 1995) was used to estimate the degree of synergy, referred as a parameter, between both drugs. Interpatient variability (IPV) associated to all parameters was described by means of an exponential model of the components of variance. An additive error structure was used for the residual variability. Population PD models were built with bone marrow (BM) samples from 473 patients that were incubated with CYT, 456 with IDA and 443 with CYT+IDA. Bayesian estimation methods were then used to retrieve individual patient parameters based on their available exposure-response measurements in conjunction with the PD population parameters.
# Individual response profiles normalized with respect to LPC0 (LCTi0), were integrated between the concentration points corresponding to the 20th and 80th percentiles of the distribution of estimated individual EC50 values, to obtain the values of the areas under the curves (AUCs) that were used as a descriptor of the ex vivo drug effect (i.e. the higher the AUC, the lower the cytotoxic effect (efficacy or potency) of the drug.
# [5] = MM patient VIVIA-PMMM010431, 48 h
# [6] = MM patient VIVIA-PMMM130061, 48 h
# [7] = MM patient VIVIA-PMMM060111, 48 h
# [8] = ALL patient VIVIA-PMALL07002, 48 h
# [9] = ALL second line patient VIVIA-PMALL04001, 48 h
# [10] = ALL patient VIVIA-PMALL09001, 48 h
compound,measurement,setting,value
Cn1c(CCCC(=O)O)nc2cc(N(CCCl)CCCl)ccc21 [bendamustine],EC50 relative to population distribution,[1]; [5],below the 10th percentile
same,ex vivo activity,[1]; [5],potent activity
same,ex vivo activity,[1]; [6],very weak activity
CC(C)C[C@H](NC(=O)[C@H](Cc1ccccc1)NC(=O)c1cnccn1)B(O)O [bortezomib],EC50 relative to population distribution,[1]; [5],below the first quartile
same,ex vivo activity,[1]; [5],potent activity
same,ex vivo activity,[1]; [7],intermediate activity
same,ex vivo activity,[1]; [6],very weak activity
O=C1CCC(N2C(=O)c3ccccc3C2=O)C(=O)N1 (stereo not shown) [thalidomide],ex vivo activity,[1]; [6],very weak activity
L-asparaginase,ex vivo activity,[2]; [8],intermediate or high activity
C[C@@H]1C[C@H]2[C@@H]3CCC4=CC(=O)C=C[C@]4(C)[C@@]3(F)[C@@H](O)C[C@]2(C)[C@@]1(O)C(=O)CO [dexamethasone],ex vivo activity,[1]; [7],no activity
O=P1(N(CCCl)CCCl)NCCCO1 (stereo not shown) [cyclophosphamide],ex vivo activity,[2]; [8],intermediate or high activity
O=C1c2c(O)ccc(O)c2C(=O)c2c(NCCNCCO)ccc(NCCNCCO)c21 [mitoxantrone],ex vivo activity,[2]; [9],low activity or resistance
C[C@]12C=CC(=O)C=C1CC[C@@H]1[C@@H]2[C@@H](O)C[C@@]2(C)[C@H]1CC[C@]2(O)C(=O)CO [prednisolone],EC50 relative to population distribution,[1]; [5],below the 10th percentile
same,ex vivo activity,[1]; [5],potent activity
same,ex vivo activity,[2]; [8],intermediate or high activity
same,ex vivo activity,[2]; [10],high activity
"Nc1ccn([C@@H]2O[C@H](CO)[C@@H](O)[C@@H]2O)c(=O)n1 [Cytarabine, cytarabine]","% Sens. (percentage of patients sensitive to therapy, NPV)",[3]; PM Test score ≥55,84.8%
same,Res. (number of patients resistant to therapy),[3]; PM Test score ≥55,14
same,Sens. (number of patients sensitive to therapy),[3]; PM Test score ≥55,78
same,"% Sens. (percentage of patients sensitive to therapy, NPV)",[3]; PM Test score ≥60,85.7%
same,Res. (number of patients resistant to therapy),[3]; PM Test score ≥60,13
same,Sens. (number of patients sensitive to therapy),[3]; PM Test score ≥60,78
same,"% Sens. (percentage of patients sensitive to therapy, NPV)",[3]; PM Test score ≥65,85.4%
same,Res. (number of patients resistant to therapy),[3]; PM Test score ≥65,13
same,Sens. (number of patients sensitive to therapy),[3]; PM Test score ≥65,76
same,"% Sens. (percentage of patients sensitive to therapy, NPV)",[3]; PM Test score ≥70,85.1%
same,Res. (number of patients resistant to therapy),[3]; PM Test score ≥70,13
same,Sens. (number of patients sensitive to therapy),[3]; PM Test score ≥70,74
same,"% Sens. (percentage of patients sensitive to therapy, NPV)",[3]; PM Test score ≥75,86.1%
same,Res. (number of patients resistant to therapy),[3]; PM Test score ≥75,11
same,Sens. (number of patients sensitive to therapy),[3]; PM Test score ≥75,68
same,"% Sens. (percentage of patients sensitive to therapy, NPV)",[3]; PM Test score ≥80,86.1%
same,Res. (number of patients resistant to therapy),[3]; PM Test score ≥80,10
same,Sens. (number of patients sensitive to therapy),[3]; PM Test score ≥80,62
same,"% Sens. (percentage of patients sensitive to therapy, NPV)",[3]; PM Test score ≥85,87.1%
same,Res. (number of patients resistant to therapy),[3]; PM Test score ≥85,8
same,Sens. (number of patients sensitive to therapy),[3]; PM Test score ≥85,54
same,"% Sens. (percentage of patients sensitive to therapy, NPV)",[3]; PM Test score ≥90,85.2%
same,Res. (number of patients resistant to therapy),[3]; PM Test score ≥90,8
same,Sens. (number of patients sensitive to therapy),[3]; PM Test score ≥90,46
same,"% Sens. (percentage of patients sensitive to therapy, NPV)",[3]; PM Test score ≥95,83.7%
same,Res. (number of patients resistant to therapy),[3]; PM Test score ≥95,7
same,Sens. (number of patients sensitive to therapy),[3]; PM Test score ≥95,36
same,Res. (number of patients resistant to therapy),[3]; PM Test score ≥100,0
same,Sens. (number of patients sensitive to therapy),[3]; PM Test score ≥100,0
same,EC50,"[4]; Homo sapiens, AML bone marrow samples, 48 h incubation",6.94 µM
same,EMAX (maximum fractional decrease in LPC),"[4]; set to 1 in the model, 48 h",1
same,γ (steepness of LPC vs concentration curve),[4]; 48 h,0.684
same,ex vivo activity,[2]; [9],intermediate-low activity
COc1cccc2c1C(=O)c1c(O)c3c(c(O)c1C2=O)C[C@@](O)(C(C)=O)C[C@@H]3O[C@H]1C[C@H](N)[C@H](O)[C@H](C)O1 [daunorubicin],ex vivo activity,[2]; [8],intermediate or high activity
same,ex vivo activity,[2]; [10],high activity
same,ex vivo activity,[2]; [9],low activity or resistance
CC[C@]1(O)C[C@H]2CN(CCc3c([nH]c4ccccc34)[C@@](C(=O)OC)(c3cc4c(cc3OC)N(C=O)[C@H]3[C@@](O)(C(=O)OC)[C@H](OC(C)=O)[C@]5(CC)C=CCN6CC[C@]43[C@@H]65)C2)C1 [vincristine],ex vivo activity,[2]; [8],intermediate or high activity
same,ex vivo activity,[2]; [10],high activity
same,ex vivo activity,[2]; [9],low activity or resistance
